Data taken from the NIST ThermoML archive (doi:10.1016/j.jct.2016.03.035).
Where “and” joins values, the source holds several entries; their conditions need not be identical. Equal values may be shown once.

Experiment: xn = mol fraction of the nth substance listed
Conditions: 273.15 K, Gas, Buoyancy - hydrostatic balance with magnetic suspension - two sinkers

C [methane] + CCC
Conditions	mass density
441.3 kPa, x1 = 0.5069	6.0554 kg/m3
441.54 kPa, x1 = 0.5069	6.0588 kg/m3
453.5 kPa, x1 = 0.5069	6.23 kg/m3
453.52 kPa, x1 = 0.5069	6.23 kg/m3
453.54 kPa, x1 = 0.5069	6.2304 kg/m3
486.09 kPa, x1 = 0.2658	8.458 kg/m3 and 8.4582 kg/m3
486.1 kPa, x1 = 0.2658	8.4581 kg/m3
491.06 kPa, x1 = 0.5069	6.7718 kg/m3
491.73 kPa, x1 = 0.2658	8.5643 kg/m3 and 8.5641 kg/m3 and 8.564 kg/m3
497.16 kPa, x1 = 0.5069	6.8601 kg/m3
500.88 kPa, x1 = 0.7498	5.2229 kg/m3
500.89 kPa, x1 = 0.7498	5.2229 kg/m3
503.23 kPa, x1 = 0.5069	6.9481 kg/m3
506.92 kPa, x1 = 0.5069	7.0016 kg/m3
506.93 kPa, x1 = 0.5069	7.0019 kg/m3
506.95 kPa, x1 = 0.5069	7.0022 kg/m3
537.7 kPa, x1 = 0.2658	9.4418 kg/m3 and 9.4416 kg/m3
537.71 kPa, x1 = 0.2658	9.4418 kg/m3
554.75 kPa, x1 = 0.5069	7.701 kg/m3
555.81 kPa, x1 = 0.5069	7.717 kg/m3
556.85 kPa, x1 = 0.5069	7.7324 kg/m3
562.21 kPa, x1 = 0.2658	9.9156 kg/m3 and 9.9157 kg/m3
568.57 kPa, x1 = 0.2658	10.0393 kg/m3 and 10.0391 kg/m3
607.74 kPa, x1 = 0.5069	8.4834 kg/m3
607.75 kPa, x1 = 0.5069	8.4836 kg/m3
607.76 kPa, x1 = 0.5069	8.484 kg/m3
608.84 kPa, x1 = 0.2658	10.8308 kg/m3 and 10.8306 kg/m3
611.36 kPa, x1 = 0.5069	8.5381 kg/m3
612.13 kPa, x1 = 0.5069	8.5492 kg/m3
612.89 kPa, x1 = 0.5069	8.5606 kg/m3
615.59 kPa, x1 = 0.2658	10.9646 kg/m3 and 10.9644 kg/m3 and 10.9642 kg/m3
619.26 kPa, x1 = 0.5069	8.6551 kg/m3
625.49 kPa, x1 = 0.5069	8.7476 kg/m3
631.66 kPa, x1 = 0.5069	8.8402 kg/m3
652.39 kPa, x1 = 0.2658	11.7012 kg/m3
652.4 kPa, x1 = 0.2658	11.7011 kg/m3
659.32 kPa, x1 = 0.2658	11.841 kg/m3 and 11.8409 kg/m3 and 11.8406 kg/m3
699.84 kPa, x1 = 0.5069	9.8667 kg/m3
701.3 kPa, x1 = 0.5069	9.889 kg/m3
701.31 kPa, x1 = 0.5069	9.8889 kg/m3
701.32 kPa, x1 = 0.5069	9.8887 kg/m3
705.89 kPa, x1 = 0.5069	9.9581 kg/m3
711.37 kPa, x1 = 0.5069	10.0422 kg/m3
711.71 kPa, x1 = 0.5069	10.0475 kg/m3
711.89 kPa, x1 = 0.5069	10.0504 kg/m3
712.05 kPa, x1 = 0.5069	10.0527 kg/m3
776.08 kPa, x1 = 0.5069	11.034 kg/m3
781.94 kPa, x1 = 0.5069	11.1239 kg/m3
787.74 kPa, x1 = 0.5069	11.2144 kg/m3
802.95 kPa, x1 = 0.5069	11.451 kg/m3
803.19 kPa, x1 = 0.5069	11.4546 kg/m3
803.43 kPa, x1 = 0.5069	11.4585 kg/m3
829.51 kPa, x1 = 0.5069	11.8643 kg/m3
829.52 kPa, x1 = 0.5069	11.8644 kg/m3 and 11.8643 kg/m3
883.12 kPa, x1 = 0.5069	12.7095 kg/m3
888.99 kPa, x1 = 0.5069	12.8025 kg/m3
894.82 kPa, x1 = 0.5069	12.8951 kg/m3
899.8 kPa, x1 = 0.7498	9.5967 kg/m3 and 9.5966 kg/m3
899.82 kPa, x1 = 0.7498	9.5965 kg/m3
907.75 kPa, x1 = 0.5069	13.1005 kg/m3
907.76 kPa, x1 = 0.5069	13.1006 kg/m3
929.46 kPa, x1 = 0.5069	13.4491 kg/m3
930.26 kPa, x1 = 0.5069	13.4619 kg/m3
